The values below come from PMC10993450, “New benzimidazole derivative compounds with in vitro fasciolicidal properties” (Parasites & Vectors, 2024).

In series [1] the test system is Fasciola hepatica eggs (ABZ-resistant isolate). Put plainly: Egg hatch test (EHT), ABZ-resistant isolate. Format: cell-based. Conditions: 5 µM, mean ± SEM. In outline:
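Eggs came from gallbladders of untreated sheep infected with an ABZ-resistant isolate. BZDs with >80% activity at 10 µM were tested on 100–120 eggs, exposed 12 h at 25 °C in the dark (≤1% DMSO), washed, and held 14 days. Hatching was counted after 2 h light, and ovicidal activity was calculated against the DMSO control.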

Series [2] has as its system Fasciola hepatica adults (ABZ-resistant isolate). Put plainly: Adult viability test (AVT), motility inhibition. Format: cell-based. Conditions: 10 µM, ABZ-resistant isolate; for inhibition at 10 µM: Fasciola hepatica, relative to motility score at 24 h. The procedure:
The adult viability test was based on a previous study carried out by Kirchhofer et al. with minor modifications. In brief, adult F. hepatica flukes were recovered from bile ducts of infected sheep with the resistant isolate. Flukes were quickly washed with 0.9% (w/v) NaCl and placed in six-well plates (Costar, Spain) with RPMI 1640 culture medium (Sigma-Aldrich®, Spain) supplemented with antibiotics (50 μg/mL streptomycin and 50 IU/mL penicillin; Sigma-Aldrich®, Spain) and 80 μg/mL of a hemin solution at 37 °C.
To monitor the anthelmintic effect of BZDs and the commercial drug ABZ, two flukes per well were incubated up to 72 h at a final concentration of 10 µM. DMSO at 0.5% was used as negative control. The individual movement of each fluke was examined using an inverted microscope at 24, 48, and 72 h. The activity of the compounds was estimated as motility inhibition, using a scale of fluke viability ranging from 3 (normal movements) to 0 (death, no movement observed for 2 min). All tests were repeated at least twice at different days.
Additionally, the percentage of motility inhibition for each compound was calculated from […] to 48 and 72 h after treatment using the following formula: 100 × (mean of the motility score of BZD at 24 h − mean of the motility score of BZD at 48 or 72 h)/(mean of the motility score of BZD at 24 h).
For the AVT, statistical analysis was performed using GraphPad Prism version 8.0.2. The normality of the motility inhibition scores was assessed using the Shapiro–Wilk test. Then, differences among scores at the three time points (24, 48, and 72 h) were evaluated using the Friedman test. In cases where significant differences were observed, post hoc analysis was conducted using the Nemenyi test for multiple comparisons. Comparisons with a P value < 0.05 were considered statistically significant.

Series [3] can be described thus: Cytotoxicity assay, alamarBlue. In kind it is cell-based, human. Conditions: human, HepG2 cells; 72 h exposure, alamarBlue; read-out: CC50 Hep-G2. How it is done: The effect of the BZDs on cell viability was assessed on a human hepatocarcinoma HepG2 (ATCC® HB-8065™, USA) cell line. Only compounds screened at a concentration of 10 µM were evaluated. The detailed protocol is described in a previous study carried out by our research group. Briefly, 10,000 cells were seeded on 96-well plates and incubated with different concentrations of the compounds ranging from 1 to 100 µM at 37 °C and 5% CO2. After 72 h of exposure, viability of the cells was assessed using the alamarBlue (Fisher Scientific®, Spain) staining method according to the manufacturer’s recommendations.
The data are represented as mean ± standard error of media (SEM).

The test system of series [4] is Teladorsagia circumcincta eggs. As to conditions: type II BZDs; read-out: IC50 against T. circumcincta eggs; cited from earlier work.
The mark [5] stands for this setting: read-out: % Adult motility inhibition 48 h.
Where [6] appears, read: read-out: % Adult motility inhibition 72 h.

Where “and” joins values, the source holds several entries; their conditions need not be identical. Equal entries are not always repeated. Entries after “also recorded” stand apart in the source; their conditions may differ. Where two headings read alike, the source gives them in different places.

Take `Cc1ccc2[nH]c(NCc3cccs3)nc2c1` [BZD31]: in series [1], the “% Ovicidal activity resistant isolate” value is 53% and 53.24 ± 20.94%. Also, in series [2], the “Motility inhibition of adults after 72 h of incubation (in words; significance vs 24 h)” value is given as “significant reduction”. Moreover, the inhibition at 10 µM in series [2] (setting [5]) worked out at 35.7%; in series [2] (setting [6]), 38.1%. In series [3], the CC50 at 72 h is more than 50000 nM.
On to `Cc1ccc2[nH]c(NC(=O)c3ccccc3)nc2c1` [BZD46], for which the “% Ovicidal activity resistant isolate” value was 11.06 ± 05.30% in series [1] and “below 13%” in series [1] (listed as BZD-46). In addition, the “Motility inhibition of adults after 72 h of incubation (in words; significance vs 24 h)” value in series [2] is “nor those with ABZSO or BZD46, exhibited any significant motility inhibition”. In addition, the inhibition at 10 µM in series [2] (setting [5]) and in series [2] (setting [6]) was 28.6% in each case. Besides, the IC50 in series [4] is approximately 1000 nM. Further, the CC50 at 72 h in series [3] was more than 100000 nM.
Turning to `COc1ccc2[nH]c(NC(=O)c3ccccc3)nc2c1` [BZD56], the “% Ovicidal activity resistant isolate” value in series [1] is 12.39 ± 03.71%; in series [1] (listed as BZD-56), “below 13%”. The “Motility inhibition of adults after 72 h of incubation (in words; significance vs 24 h)” value in series [2] was “significant reduction”. For the same compound, the inhibition at 10 µM in series [2] (setting [5]) came to 53%; in series [2] (setting [6]) it was 51.5%. Besides, in series [4], the IC50 was approximately 1000 nM. In series [3], the CC50 at 72 h is more than 100000 nM.
Take `O=C(Nc1nc2cc(Cl)ccc2[nH]1)c1ccccc1` [BZD59]: the results for the “% Ovicidal activity resistant isolate” value in series [1] and in series [1] (listed as BZD-59) were 06.28 ± 05.20% and “below 13%”, respectively. Moreover, the “Motility inhibition of adults after 72 h of incubation (in words; significance vs 24 h)” value in series [2] is given as “high motility inhibition; also recorded: significant reduction; also recorded: most potent compound; also recorded: most significant reduction in worm motility”. Moreover, the inhibition at 10 µM was 46.7% in series [2] (setting [5]) and 60% in series [2] (setting [6]). In addition, the IC50 in series [4] was approximately 1000 nM. Also, the CC50 at 72 h in series [3] is more than 100000 nM.
